The values below come from ChEMBL document CHEMBL5226379, “Hypouricemic Actions of the Pericarp of Mangosteen in Vitro and in Vivo” (J Nat Prod, 2023).

Active and inactive are the calls of the source. No cut-off for these calls is given here.

Series [1] concerns Mus musculus. Kind of series: Hypouricemic activity in potassium oxonate-induced hyperuricemic Kunming mouse model assessed as decrease in serum uric acid level at 5 mg/kg, IG pre-administered via gavage twice daily for 5 times followed by potassium oxonate injection for 1 hrs prior to last dose by phosphotungstic acid method. The class given is functional. The following applies: for Activity: time 5.0 day.

The species entered for a further series is Homo sapiens. Nature of the series: Inhibition of uricase (unknown origin) using uric acid as substrate at 112.5 mg/L preincubated with compounds for 15 mins followed by uric acid addition.
The test system of series [2] is Mus musculus. Nature of the series: Hypouricemic activity in potassium oxonate-induced hyperuricemic Kunming mouse model assessed as serum XOD level at 10 mg/kg, IG pre-administered via gavage twice daily for 5 times followed by potassium oxonate injection for 1 hrs prior to last dose. The class given is functional. The following applies: time 5 day.
The target of series [3] is Xanthine dehydrogenase/oxidase (Homo sapiens, UniProt P47989). Nature of the series: Inhibition of XOD (unknown origin) using xanthine as substrate assessed as inhibition of uric acid generation at 0.54 mg/L preincubated for 15 mins followed by xanthine addition and measured by spectrophotometric analysis relative to control.
Xanthine dehydrogenase/oxidase, sequence (P47989 whole entry): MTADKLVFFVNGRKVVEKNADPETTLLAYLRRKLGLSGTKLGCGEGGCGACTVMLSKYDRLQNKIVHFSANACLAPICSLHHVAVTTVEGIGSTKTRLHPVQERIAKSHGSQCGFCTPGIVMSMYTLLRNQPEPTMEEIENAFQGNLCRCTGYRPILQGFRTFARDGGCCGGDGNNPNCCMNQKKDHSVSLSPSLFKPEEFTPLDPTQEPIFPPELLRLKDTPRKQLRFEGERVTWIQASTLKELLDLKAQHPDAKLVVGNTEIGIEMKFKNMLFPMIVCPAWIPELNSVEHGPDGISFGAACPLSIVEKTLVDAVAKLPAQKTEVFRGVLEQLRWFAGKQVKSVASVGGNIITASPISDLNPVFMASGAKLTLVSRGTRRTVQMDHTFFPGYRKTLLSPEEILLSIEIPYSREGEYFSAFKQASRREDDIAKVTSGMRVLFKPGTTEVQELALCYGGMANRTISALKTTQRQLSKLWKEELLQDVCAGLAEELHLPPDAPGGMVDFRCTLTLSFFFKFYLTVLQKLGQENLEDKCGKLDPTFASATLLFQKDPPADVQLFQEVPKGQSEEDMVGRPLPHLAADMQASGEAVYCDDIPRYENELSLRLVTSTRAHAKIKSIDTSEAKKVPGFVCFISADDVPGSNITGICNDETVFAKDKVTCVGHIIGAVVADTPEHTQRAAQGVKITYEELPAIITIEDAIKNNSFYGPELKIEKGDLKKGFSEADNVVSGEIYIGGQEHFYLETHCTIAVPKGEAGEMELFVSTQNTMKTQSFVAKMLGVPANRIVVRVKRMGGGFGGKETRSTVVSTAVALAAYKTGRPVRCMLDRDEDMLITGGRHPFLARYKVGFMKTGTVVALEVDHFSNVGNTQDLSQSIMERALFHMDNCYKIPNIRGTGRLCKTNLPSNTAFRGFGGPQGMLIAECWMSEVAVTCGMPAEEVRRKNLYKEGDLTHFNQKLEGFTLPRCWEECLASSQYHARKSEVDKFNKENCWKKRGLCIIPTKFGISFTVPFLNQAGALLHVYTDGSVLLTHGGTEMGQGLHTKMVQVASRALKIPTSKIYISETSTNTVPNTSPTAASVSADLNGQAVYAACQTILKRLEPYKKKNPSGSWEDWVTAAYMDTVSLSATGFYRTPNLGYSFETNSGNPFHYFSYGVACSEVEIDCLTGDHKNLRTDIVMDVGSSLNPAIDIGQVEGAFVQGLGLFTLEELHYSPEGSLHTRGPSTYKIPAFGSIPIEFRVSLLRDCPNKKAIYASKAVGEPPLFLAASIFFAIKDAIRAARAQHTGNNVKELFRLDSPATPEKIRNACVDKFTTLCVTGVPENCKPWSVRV
In series [4] the test system is Mus musculus. Nature of the series: Hypouricemic activity in potassium oxonate-induced hyperuricemic Kunming mouse model assessed as serum urate level at 10 mg/kg, IG pre-administered via gavage twice daily for 5 times followed by potassium oxonate injection for 1 hrs prior to last dose by phosphotungstic acid method. Type of series: functional. The following applies: time 5 day.

Series [5] deals with Mus musculus. Nature of the series: Hypouricemic activity in potassium oxonate-induced hyperuricemic Kunming mouse model assessed as decrease in serum uric acid level at 5 mg/kg, IG pre-administered via gavage twice daily for 5 times followed by potassium oxonate injection for 1 hrs prior to last dose by phosphotungstic acid method relative to control. Type of series: functional. Also on record: scale not given: the % may be the effect or the level left. As to conditions: time 5 day.

The subject of series [6] is Mus musculus. Nature of the series: Hypouricemic activity in potassium oxonate-induced hyperuricemic Kunming mouse model assessed as serum XDH level at 10 mg/kg, IG pre-administered via gavage twice daily for 5 times followed by potassium oxonate injection for 1 hrs prior to last dose. Type of series: functional. The following applies: time 5 day.
Series [7] deals with Rattus norvegicus. Nature of the series: Anti-hyperuricemic activity against potassium oxonate-induced hyperuricemic Sprague-Dawley rat model assessed as serum creatinine level at 12.5 mg/kg, po pre-administered via gavage twice daily for 5 times followed by potassium oxonate injection for 1 hrs prior to last dose and measured after 3 hrs. The class given is functional. As to conditions: time 123 hrs.

For series [8], the system named is Rattus norvegicus. Kind of series: Anti-hyperuricemic activity against potassium oxonate-induced hyperuricemic Sprague-Dawley rat model assessed as urine volume at 12.5 mg/kg, po pre-administered via gavage twice daily for 5 times followed by potassium oxonate injection for 1 hrs prior to last dose and measured after 3 hrs. The class given is functional. As to conditions: time 123 hrs.

Series [9] concerns Rattus norvegicus. Nature of the series: Anti-hyperuricemic activity against potassium oxonate-induced hyperuricemic Sprague-Dawley rat model assessed as glomerular load of urate measured per body surface area of 0.0311 m2 at 12.5 mg/kg, po pre-administered via gavage twice daily for 5 times followed by potassium oxonate injection for 1 hrs prior to last dose and measured after 3 hrs. Type of series: functional. As to conditions: time 123 hrs.

The subject of series [10] is Rattus norvegicus. Nature of the series: Anti-hyperuricemic activity against potassium oxonate-induced hyperuricemic Sprague-Dawley rat model assessed as serum urate level at 12.5 mg/kg, po pre-administered via gavage twice daily for 5 times followed by potassium oxonate injection for 1 hrs prior to last dose and measured after 3 hrs. As to conditions: time 123 hrs. Type of series: functional.

Series [11] concerns Rattus norvegicus. Kind of series: Anti-hyperuricemic activity against potassium oxonate-induced hyperuricemic Sprague-Dawley rat model assessed as fractional excretion of urate at 12.5 mg/kg, po pre-administered via gavage twice daily for 5 times followed by potassium oxonate injection for 1 hrs prior to last dose and measured after 3 hrs relative to control. The following applies: time 123 hrs. Type of series: functional.

Series [12] deals with Mus musculus. Kind of series: Anti-hyperouricemic activity in uric acid-induced hyperuricemic Kunming mouse model assessed as decrease in serum uric acid level at 25 mg/kg, IG pre-administered with uric acid for 30 mins followed by compound treatment and measured after 2 hrs by phosphotungstic acid method. Type of series: functional, organism-based.
The subject of series [13] is Rattus norvegicus. Nature of the series: Anti-hyperuricemic activity against potassium oxonate-induced hyperuricemic Sprague-Dawley rat model assessed as urinary creatinine level at 12.5 mg/kg, po pre-administered via gavage twice daily for 5 times followed by potassium oxonate injection for 1 hrs prior to last dose and measured after 3 hrs. The following applies: time 123 hrs. The class given is functional.

Series [14] has as its system Rattus norvegicus. Nature of the series: Anti-hyperuricemic activity against potassium oxonate-induced hyperuricemic Sprague-Dawley rat model assessed as clearance of urate measured per body surface area of 0.0311 m2 at 12.5 mg/kg, po pre-administered via gavage twice daily for 5 times followed by potassium oxonate injection for 1 hrs prior to last dose and measured after 3 hrs. Type of series: functional. The following applies: time 123 hrs.

The test system of series [15] is Rattus norvegicus. Kind of series: Anti-hyperuricemic activity against potassium oxonate-induced hyperuricemic Sprague-Dawley rat model assessed as urinary urate at 12.5 mg/kg, po pre-administered via gavage twice daily for 5 times followed by potassium oxonate injection for 1 hrs prior to last dose and measured after 3 hrs. Type of series: functional. The following applies: time 123 hrs.

For series [16], the system named is Rattus norvegicus. Kind of series: Anti-hyperuricemic activity against potassium oxonate-induced hyperuricemic Sprague-Dawley rat model assessed as serum urea nitrogen level at 12.5 mg/kg, po pre-administered via gavage twice daily for 5 times followed by potassium oxonate injection for 1 hrs prior to last dose and measured after 3 hrs. The following applies: time 123 hrs. The class given is functional.

Series [17] concerns Rattus norvegicus. Kind of series: Anti-hyperuricemic activity against potassium oxonate-induced hyperuricemic Sprague-Dawley rat model assessed as urinary urate level at 12.5 mg/kg, po pre-administered via gavage twice daily for 5 times followed by potassium oxonate injection for 1 hrs prior to last dose and measured after 3 hrs. The class given is functional. The following applies: time 123 hrs.

In series [18] the test system is Rattus norvegicus. Nature of the series: Anti-hyperuricemic activity against potassium oxonate-induced hyperuricemic Sprague-Dawley rat model assessed as clearance of creatinine measured per body surface area of 0.0311 m2 at 12.5 mg/kg, po pre-administered via gavage twice daily for 5 times followed by potassium oxonate injection for 1 hrs prior to last dose and measured after 3 hrs. Type of series: functional. The following applies: time 123 hrs.

The test system of series [19] is Rattus norvegicus. Nature of the series: Anti-hyperuricemic activity against potassium oxonate-induced hyperuricemic Sprague-Dawley rat model assessed as excretion of urate per volume of glomerular filtration measured per body surface area of 0.0311 m2 at 12.5 mg/kg, po pre-administered via gavage twice daily for 5 times followed by potassium oxonate injection for 1 hrs prior to last dose and measured after 3 hrs. The class given is functional. The following applies: time 123 hrs.

Series [20] is described as follows: Toxicity in Kunming mouse assessed as decrease in serum uric acid level at 1 mg/kg. Type of series: organism-based. The following applies: in vivo.
Series [21] has as its system Mus musculus. Kind of series: Hypouricemic activity in potassium oxonate-induced hyperuricemic Kunming mouse model assessed as decrease in serum XOD level at 1 mg/kg, IG pre-administered via gavage twice daily for 5 times followed by potassium oxonate injection for 1 hrs prior to last dose. Type of series: functional, organism-based. As to conditions: time 5.0 day.

With `CC(C)=CCc1c(O)cc2oc3cc(O)c(O)c(CC=C(C)C)c3c(=O)c2c1O`, the result in the series on Mus musculus [1] was inactive.
For the compound `COc1c(O)cc2oc3cc4c(c(O)c3c(=O)c2c1CC=C(C)C)C=CC(C)(C)O4`, the result with Mus musculus [1] was inactive.
With `O=C(O)c1nc(=O)[nH]c(=O)[nH]1`, the inhibition in the series filed under Homo sapiens came to 96.5%.
For `Oc1ncnc2[nH]ncc12` [ALLOPURINOL], the Activity worked out at 11.46 U/L in the series with Mus musculus [2], 180.26 µmol/L with Mus musculus [4], 64% in the series with Mus musculus [5] and 2.59 U/L with Mus musculus [6]. The inhibition at 0.54 µg/mL in series [3] was determined as 42.7%. The “serum uric acid level” value in the series with Mus musculus [1] (time 5 day) came out at 117.86 µmol/L.
On to `CCc1oc2ccccc2c1C(=O)c1cc(Br)c(O)c(Br)c1` [BENZBROMARONE], for which the Activity in the series with Rattus norvegicus [7] was found to be 56.1 µmol/L; in the series with Rattus norvegicus [8], 4.6 mL; in the series on Rattus norvegicus [9], 3.8 µmol/min; with Rattus norvegicus [10], 258 µmol/L; in the series with Rattus norvegicus [11], 66%; in the series with Rattus norvegicus [13], 1 mmol/L. Also, the Activity came to 8.4 mL/min in the series with Rattus norvegicus [14]; 392 µmol with Rattus norvegicus [15]; 9.7 mmol/L with Rattus norvegicus [16]; 2.7 mmol/L in the series with Rattus norvegicus [17]; 14.6 mL/min with Rattus norvegicus [18]; 5.3 µmol/L with Rattus norvegicus [19]. The outcome in the series with Mus musculus [12] was Active.
On to `Cc1nc(-c2ccc(OCC(C)C)c(C#N)c2)sc1C(=O)O` [FEBUXOSTAT], for which, in series [20], the Activity entry is “Toxic”. The result in the series with Mus musculus [21] was Active.
